Test results published in patent publication US10222390B2, “Near-infrared fluorescent sensors for biological amines” (The Curators of the University of Missouri, priority 2015, dated 2019).
Several values for one entry are separate records, joined by “and”; a condition that tells them apart may be missing. Equal values may be shown once. One block for each compound: values may come before it.

Key:
[1] = Spectral characteristics of sensors (absorption, emission, Stokes shift); assay type: physicochemical
Experimental: (§1) NeuroSensor 715 was screened with various relevant amines via absorption and fluorescence spectroscopy. Steady-state fluorescence spectroscopic studies were performed using a Horiba Scientific Fluorolog-3 Model FL3C-111 spectrofluorometer and data was collected and analyzed using HJY FluorEssence™ 3.5.1.20 software package. UV-visible spectra were recorded on a Varian Cary 1E UV-visible spectrophotometer at 37° C.
(§2) A 1 mg/mL stock solution of NeuroSensor 715 in DMSO was prepared. A stock solution of NeuroSensor 715 and derivatives in buffer (2×10^−5 M, 25 mM HEPES, 50 mM Na2S2O3, pH 5.0) was prepared. Serotonin, norepinephrine, dopamine, and glutamate stock solutions were prepared by separately dissolving the analytes at the concentration to be used in the titrations with the buffered stock solution of NeuroSensor 715 (thus avoiding dilution of NeuroSensor 715 during the experiment). NeuroSensor 715 was titrated with aliquots of the analyte solution. NeuroSensor 715 derivatives were excited at 559 nm. The slit width was 10 nm for both excitation and emission.

[2] = in vitro; cited from earlier work
[3] = Fluorescence/absorbance titration of NS715 with serotonin; assay type: binding
Experimental: as §1, §2
NeuroSensor 715 binds to all primary amines via iminium ion formation, which produces a red shift in absorption from 500 to 546 nm (FIG. 6 (A)). In fluorescence mode, exciting the unbound NeuroSensor 715 at 559 nm provided fluorescence emission at 686 nm. In fluorescence mode, exciting the bound complex at 559 nm upon adding serotonin produced a marked 8.0-fold fluorescence enhancement at […] (FIG. 6 (B)).

[4] = Fluorescence/absorbance titration of NS715 with dopamine; assay type: binding
Experimental: as §1, §2

[5] = Fluorescence/absorbance titration of NS715 with norepinephrine; assay type: binding
Experimental: as §1, §2

[6] = Fluorescence/absorbance titration of NS715 with glutamate; assay type: binding
Experimental: as §1, §2

[7] = Interaction of NS715 with epinephrine in vitro; assay type: binding
[8] = test system: norepinephrine-enriched chromaffin cells; test: Confocal imaging of norepinephrine-enriched chromaffin cells incubated with NS715; assay type: cell-based; conditions: NS715 10 μM
Experimental: (§3) NS715 binds to norepinephrine and strongly fluoresces, but not to epinephrine because it is a secondary-amine neurotransmitter. Both populations of cells were incubated with NS715 (10 μM), washed, and subsequently imaged using confocal microscopy. The unbound UV λmax=500 nm and the bound UV λmax=546 nm. The unbound sensor emits at 686 nm and the bound sensor emits at 715 nm. Excitation wavelengths of 458 nm and 633 nm were used to preferentially excite the unbound and bound forms of NS715. Emission for all excitation wavelengths was measured using 650 nm-710 nm bandpass filter.

[9] = test system: epinephrine-enriched chromaffin cells; test: Confocal imaging of epinephrine-enriched chromaffin cells incubated with NS715; assay type: cell-based; conditions: NS715 10 μM
Experimental: as §3

[10] = sensor saturated with primary amine analyte (bound)
[11] = thiophene in place of benzene moiety on NeuroSensor 521 platform
[12] = intensity at saturation from fit
[13] = λex = 559 nm, λem = 780 nm, buffer pH 5.0, error ±10%

- Stokes shift [1, 10]: 37 nm
- λabs [1, 10]: 502 nm
- λem [1, 10]: 539 nm
- bathochromic shift in absorbance [1, 11]: 10 nm
- bathochromic shift in fluorescence emission [1, 11]: 17 nm
- Stokes shift ([1]; unbound sensor): 60 nm
- λabs ([1]; unbound sensor): 462 nm
- λem ([1]; unbound sensor): 522 nm
Structure (SMILES): CCN(CC)c1ccc2c(-c3cccs3)c(C=O)c(=O)oc2c1

Structure (SMILES): CCN(CC)c1ccc2c(-c3ccc(OC)cc3)c(C=O)c(=O)oc2c1 [NS521]
- fluorescence response upon interaction with serotonin [2]: fluorescence quenching

- higher binding constant for serotonin compared to glutamate ([3]; serotonin vs glutamate, listed as NeuroSensor 715): 19 fold and 18 fold
- higher binding constants of catecholamines compared to glutamate ([5]; norepinephrine and dopamine on average vs glutamate): 6.0 fold
- increase of Stokes shift compared to thiophene-based NeuroSensor 521 derivative ([1]; both unbound and bound complex): over 125 nm
- Stokes shift [1, 10]: 169 nm
- λabs [1, 10]: 546 nm
- λem [1, 10]: 715 nm
- λabs ([1]; unbound sensor): 500 nm
- λem ([1]; unbound sensor): 686 nm
- Stokes shift ([1]; unbound sensor, listed as NeuroSensor 715): 186 nm
Structure (SMILES): CCN1CCN(CC)c2cc3c(-c4cccs4)c(C=O)c(=O)oc3cc21 [NS715]
- fluorescence enhancement ([3]; serotonin, at 715 nm): 8.0 fold
- fluorescence enhancement ([3]; serotonin, excited at 559 nm, measured at 780 nm): 8.0 fold
- Isat/I0 ([3]; serotonin, fluorescence intensity at saturation from fit to binding isotherm): 8.0
- Ka ([3]; serotonin, fluorescence spectroscopy, λex = 559 nm, λem = 780 nm, buffer pH 5.0, error ±10%): 409 M⁻¹
- fluorescence enhancement [4]: 3.4 fold
- Isat/I0 [4, 12]: 4.0
- Ka [4, 13]: 145 M⁻¹
- fluorescence enhancement ([5]; norepinephrine): 3.0 fold
- Isat/I0 ([5]; norepinephrine, intensity at saturation from fit): 3.4
- Ka ([5]; norepinephrine, λex = 559 nm, λem = 780 nm, buffer pH 5.0, error ±10%): 129 M⁻¹
- fluorescence enhancement [6]: 3.0 fold
- Isat/I0 [6, 12]: 3.0
- Ka [6, 13]: 22.3 M⁻¹
- modulation of absorption or fluorescence spectrum upon interaction with epinephrine [7]: no modulation in the absorption or fluorescence spectrum
- average fluorescence intensity of norepinephrine-enriched cells relative to epinephrine-enriched cells [8]: 15 fold
- fluorescence when excited at 633 nm ([8]; norepinephrine-enriched cells): punctate pattern with strong fluorescence
- average fluorescence intensity ([8]; norepinephrine-enriched cells, 650-710 nm bandpass, n=20): 12.42±1.75
- fluorescence when excited at 633 nm [9]: marginal fluorescence
- average fluorescence intensity ([9]; 650-710 nm bandpass, n=20): 0.85±0.29

- Stokes shift [1, 10]: 32 nm
- λabs [1, 10]: 488 nm
- λem [1, 10]: 520 nm
- Stokes shift ([1]; unbound sensor): 53 nm
- λabs ([1]; unbound sensor): 452 nm
- λem ([1]; unbound sensor): 505 nm
Structure (SMILES): CCN(CC)c1ccc2c(-c3ccccc3)c(C=O)c(=O)oc2c1 [benzene-based NeuroSensor 521 derivative]
